Data from US8466311B2, “Neuroprotective compositions and methods” (Sanford-Burnham Medical Research Institute, priority 2006, dated 2013).

Tests used:
GSH = assay: Total GSH levels in cortical cultures; assay type: cell-based; conditions: NEM
Description: Cell cultures, transfection, and glutathione (GSH) measurement. […] Transfection was performed with Lipofectamine 2000 (Invitrogen). In the reporter gene assays, firefly luciferase activity in cell lysates was measured with a luminometer (Promega). Total GSH (reduced and oxidized) was determined as described (Lee et al., Biochem. Biophys. Res. Commun. 280:286-292, 2001).
One caveat to the mechanism of NEPP and other electrophilic compounds acting at the level of Keap1 to induce HO-1 transcription is that NEPP could potentially react indiscriminately with other thiol-containing compounds in cells. To approach this question, we assessed cellular glutathione (GSH) levels to determine whether NEPP11 would affect this abundant antioxidant thiol. Nepp11 or N-ethylmaleimide (NEM) was added at t=0 and levels of total GSH were measured at the indicated times. GSH content of control cortical cultures (set arbitrarily at 100%) was 46.8±4.5 nmol/mg protein. […] In fact, this scenario seems likely, because the Keap1/Nrf2 pathway regulates the expression of γ-GCL in addition to HO-1 (Itoh et al., Mol. Cell. Biol. 24:36-45, 2004). […]
Transfections were performed with Lipofectamine 2000 (Invitrogen), and firefly luciferase activity in cell lysates was measured with a luminometer in the reporter gene assays (Promega).

[1] = target: T1, bovine serum albumin (BSA) (Bos taurus, UniProt P02769); assay: Adduct formation with free cysteine of BSA (streptavidin blot); assay type: binding; conditions: PBS, room temperature, 5 h, streptavidin probe
T1 construct: purchased WAKO Chemicals Inc. (Tokyo, Japan) or Sigma (St. Louis, Mo.)
T1 sequence (P02769 25-607): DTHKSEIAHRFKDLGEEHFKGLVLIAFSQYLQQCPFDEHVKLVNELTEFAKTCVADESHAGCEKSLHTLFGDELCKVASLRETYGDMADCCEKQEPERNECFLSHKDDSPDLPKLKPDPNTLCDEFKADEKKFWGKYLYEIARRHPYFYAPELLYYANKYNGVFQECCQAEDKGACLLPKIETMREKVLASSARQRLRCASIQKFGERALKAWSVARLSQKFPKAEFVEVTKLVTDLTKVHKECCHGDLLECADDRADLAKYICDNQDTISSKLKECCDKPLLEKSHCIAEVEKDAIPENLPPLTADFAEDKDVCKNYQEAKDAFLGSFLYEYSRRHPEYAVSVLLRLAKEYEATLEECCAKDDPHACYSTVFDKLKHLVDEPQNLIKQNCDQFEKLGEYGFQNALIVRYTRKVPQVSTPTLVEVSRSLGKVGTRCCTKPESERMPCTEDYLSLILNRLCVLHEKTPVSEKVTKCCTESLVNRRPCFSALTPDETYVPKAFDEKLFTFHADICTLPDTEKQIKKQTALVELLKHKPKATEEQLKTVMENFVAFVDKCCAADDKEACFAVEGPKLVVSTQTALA
Description: We tested whether the free cysteine of bovine serum albumin (BSA) could form an adduct with NEPP compounds. If carbon #11 on the NEPP compounds binds to this free cysteine of BSA, then pretreatment with N-ethylmaleimide (NEM), in irreversible thiol alkylating agent, would abolish this binding. […] With streptavidin as a probe, we could then detect proteins bound to NEPP6-biotin. In order to study thiols as targets of NEPP binding, BSA (1 μg per lane) was incubated with various concentrations (0-1000 μM) of N-ethylmaleimide (NEM) for 30 minutes at room temperature. Vehicle or NEPP6-biotin (10 μM) in phosphate-buffered saline (PBS) was added and the mixture was incubated at room temperature for 5 h, subjected to sodium dodecyl sulfate polyacrylamide gel electrophoresis (SDS-PAGE), and probed with peroxidase-conjugated streptavidin. The gel was also stained with Coomassie brilliant blue.

[2] = system: mixed neuronal/glial cortical cultures; assay: Site of accumulation of biotin-labeled compound in mixed neuronal/glial cortical cultures; assay type: cell-based, rat; conditions: E17 DIV21
Description: Activation of the Keap1/Nrf2 pathway in Primary Cortical Cultures. To begin to test the effects of NEPP compounds on primary cerebrocortical neurons, we treated mixed neuronal/glial cortical cultures with NEPP6-biotin and then fixed and stained with rhodamine conjugated to streptavidin to determine the site of NEPP accumulation. Cortical cultures treated with NEPP6-biotin (10 μM) were stained with anti-MAP-2 monoclonal and rhodamine-conjugated streptavidin antibodies and with Hoechst 33,258 dye.
Immunocytochemistry. Cultures were fixed with 3% paraformaldehyde at room temperature for 20 min. After three washes in PBS, the cells were permeabilized with 0.3% Triton X-100 for 5 min. After three additional washes in PBS, the cells were incubated at 4° C. overnight with primary antibodies. They were then washed three times in PBS containing 0.2% Tween 20 (PBS-T), and next incubated with secondary antibodies for 1 h at room temperature. Thereafter, the cells were again washed, and their nuclei stained with Hoechst 33,258 (5 μg/ml) or with DAPI (1 μg/ml) for 5 min. Stained preparations were mounted and examined by epifluorescence microscopy. The following primary antibodies were used: anti-Nrf2 antibody, anti-MAP2 and anti-NeuN antibodies to identify neurons (dendrites and nuclei, respectively), and anti-S100β antibody to identify astrocytes. […]

Keap1 [3] = target: T2, Keap1 (Mus musculus, UniProt Q9Z2X8); assay: Binding of CAB/CA to Keap1 and Keap1 deletion mutants (streptavidin precipitation); conditions: COS7 cells, HA-WT Keap1, 10 μM CAB
T2 construct: expressed in transfected cells; host or cells: COS7 cells
T2 sequence (Q9Z2X8 whole entry): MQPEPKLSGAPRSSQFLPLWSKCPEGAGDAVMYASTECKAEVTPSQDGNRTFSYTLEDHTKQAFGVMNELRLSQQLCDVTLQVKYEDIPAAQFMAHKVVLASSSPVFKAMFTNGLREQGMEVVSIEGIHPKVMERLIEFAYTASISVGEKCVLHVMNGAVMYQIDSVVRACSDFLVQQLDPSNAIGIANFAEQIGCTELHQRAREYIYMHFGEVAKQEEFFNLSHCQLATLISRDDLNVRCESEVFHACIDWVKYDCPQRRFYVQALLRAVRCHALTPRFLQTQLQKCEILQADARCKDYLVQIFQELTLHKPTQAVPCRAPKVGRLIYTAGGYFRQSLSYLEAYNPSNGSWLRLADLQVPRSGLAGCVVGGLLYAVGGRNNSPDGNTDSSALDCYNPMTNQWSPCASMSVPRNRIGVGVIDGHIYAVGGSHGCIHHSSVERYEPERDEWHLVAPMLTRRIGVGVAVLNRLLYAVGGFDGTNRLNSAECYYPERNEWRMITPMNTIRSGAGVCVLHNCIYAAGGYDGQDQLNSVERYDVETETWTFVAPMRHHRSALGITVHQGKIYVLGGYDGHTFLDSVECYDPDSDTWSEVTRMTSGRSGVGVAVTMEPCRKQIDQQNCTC
Description: (§1) (3) Expression vectors for HA-tagged Keap1 and Keap1 deletion mutants. These constructs were obtained from Dr. Akira Kobayashi of Tohoku University (Hosoya et al., J. Biol. Chem. 29:27244-27250, 2006; Kobayashi et al., Mol. Cell. Biol. 26:221-229, 2006).
(§2) Immunoprecipitation with agarose-immobilized streptavidin or antibody. PC12h cells (CAB- or vehicle-treated) were lysed in RIPA buffer supplemented with protease inhibitor cocktail. The lysates were centrifuged at 15,000 rpm for 10 min at 4° C., after which the supernatants were incubated with agarose-immobilized streptavidin at 4° C. for 1 h. Alternatively, for immunoprecipitation with anti-Keap1, the cell lysates were incubated with the antibody at 4° C. overnight, after which protein A immobilized on Sepharose CL-4B was added and incubation continued at 4° C. for 1 h. Then, the complexes were washed three times with rinse buffer (150 mM NaCl, 50 mM Tris-HCl [pH 7.5], 0.1% NP-40, 1 mM EDTA, and 0.02% NaN3). SDS sample buffer was added, the mixture was boiled for 5 min, and the supernatants were subjected to SDS-PAGE. Immunoblotting was then performed as described above.
(§3) CA activates the Keap1/Nrf2/ARE pathway. […] The initial reaction in this activation cascade is the binding of an electrophilic compound to specific cysteines on Keap1 protein (Hong et al., Chem. Res. Toxicol. 18: 1917-1926, 2005; Eggler et al., Proc. Nat. Acad. Sci. USA 102:10070-10075, 2005; Zhang et al., Mol. Cell. Biol. 10941-10953, 2004). Such binding initiates a cellular transcription pathway leading to induction of phase 2 enzymes (Talalay, Biofactors 12:5-11, 2000; Padmanabham et al., Mol. Cell 21:689-700, 2006; Itoh et al., Free Radic. Biol. Med. 36:1208-1213, 2004). Therefore, we examined the domains of Keap1 (designated BTB, IVR, and DGR) to determine those essential for binding to CA. Accordingly, for co-immunoprecipitation experiments, we transfected COS7 cells with DNA expressing either HA-tagged wild type Keap1 protein (HA-WT Keap1) or various deletion mutants of tagged Keap1 protein (HA-ΔBTB Keap1, HA-ΔIVR Keap1, and HA-ΔDGR Keap1). The transfected COS7 cells were then treated with vehicle or 10 μM CAB and lysed. We quantified the expression level of Keap1 protein in total cell lysates with anti-HA antibody. Each Keap1 mutant protein was expressed at a similar level of the predicted molecular weight (57 kDa for HA-ΔBTB Keap1, 53 kDa for HA-ΔIVR Keap1, and 37 kDa for HA-ΔDGR Keap1). Next, in order to detect Keap1/CAB complexes, we immunoprecipitated cell lysates with streptavidin and probed with anti-HA antibody. […] The requirement of the BTB domain for CA binding is in accord with prior results (Hong et al., Chem. Res. Toxicol. 18:1917-1926, 2005; Eggler et al., Proc. Nat. Acad. Sci. USA 102:10070-10075, 2005; Zhang et al., Mol. Cell. Biol. 24:10941-10953, 2004).
(§4) After binding of the electrophilic quinone-form of CA to Keap1 protein, activation of the Keap1/Nrf2 pathway requires nuclear translocation of Nrf2 (Talalay, Biofactors 12:5-11, 2000; Padmanabham et al., Mol. Cell 21:689-700, 2006; Itoh et al., Free Radic. Biol. Med. 36:1208-1213, 2004). Thus, we next examined the intracellular distribution of Nrf2 protein in COS7 cells by immunofluorescence.

Keap1 [4] = assay: as above; conditions: COS7 cells, 10 μM CAB
Description: as §1, §2, §3, §4

ARE = assay: ARE(GSTYa)-luciferase reporter in PC12h cells; assay type: cell-based
Description: (1) pGL3-GSTYa ARE core-luciferase vector. […] The dsDNA thus obtained was inserted into the Mlu l and Bglll sites of the pGL3-promoter vector (Promega Co., Madison, Wis.).
Transient transfection and measurement of luciferase activity. PC12h cells or cerebrocortical cultures (E17, DIV21) were incubated for 5 h in EBSS containing 1 μg of a plasmid DNA plus Lipofectamine 2000 (Invitrogen, Carlsbad, Calif.). Transfection efficiency was normalized to β-galactosidase activity expressed by co-transfection with pSV-β-gal (Promega). For reporter gene assays, cells were transfected with 1 μg of the reporter construct [ARE(GSTYa)-luciferase] and 0.2 μg pSV-β-gal for 1 hour. […] Firefly luciferase activity and β-galactosidase activity in cell lysates were measured using a Luciferase System and β-Galactosidase Enzyme Assay System, respectively (Promega, Madison, Wis.).
Next, we examined the involvement of the Keap1/Nrf2 pathway more precisely by studying activation of the ARE. This transcription element responds to the Keap1/Nrf2 pathway; we monitored activation of the ARE by performing luciferase reporter gene assays using PC12h cells transfected with ARE(GSTYa)-luciferase (Alam et al., J. Biol. Chem. 274:26071-26077, 1999) in the presence or absence of an Nrf2 dominant-negative (DN) or Keap1 expression vector.

PC12h cells = assay: Oxidative glutamate toxicity in PC12h cells (MTT assay); assay type: cell-based
Description: PC12h cells, PC12hW1B cells, and PC12hD5D cells (expressing Nrf2DN) were incubated with various concentrations of glutamate for 20 h. […] Various concentrations of CA were added to PC12, PC or PC12hD5D cells 1 h prior to exposure to 5 mM glutamate for 20 h.
PC12h and COST cell cultures.
Thus, we examined whether CA could protect PC12h cells from such insults. We prepared naïve PC12h cells, Nrf2WT-expressing PC12h cells (PC12hW1B), and Nrf2DN-expressing PC12h cells (PC12hD5D). In order to examine the effects of the Keap1/Nrf2 pathway on cell survival in the face of oxidative stress, we exposed the cells to a high concentration of glutamate. […] To visualize surviving and dead cells, we stained cultures with fluorescein diacetate (FDA) and propidium iodide (PI), respectively. Additionally, cell survival was quantified by the 3-(4,5-dimethylthiazol-2-yl)-2,5-diphenyl tetrazolium bromide (MTT) assay (FIG. 4A).
We next tested the hypothesis that CA-induced neuroprotection is mediated by the Keap1/NRf2 pathway.

cerebrocortical neurons = assay: NMDA-induced neuronal cell death (excitotoxicity) in cerebrocortical cultures; conditions: ZnPP 10 μM added simultaneously with NEPP11
Description: We stained the cultures with both anti-MAP-2 and anti-NeuN monoclonal antibodies to label neuronal dendrites and nuclei, respectively. Vehicle or NEPP11 (0.7 μM) was added to cerebrocortical cultures (E17 and DIV14-21) 60 min before treatment with NMDA (50 μM) for 15 min. The cultures were then incubated for 20 h and subsequently stained with anti-MAP-2 and anti-NeuN and with Hoechst dye. Apoptotic nuclei were identified by morphological changes seen with Hoechst staining. […] We also added zinc protoporphyrin (ZnPP, 10 μM), a relatively specific HO-1 antagonist, simultaneously with NEPP11. The number of apoptotic neurons was assessed by determining the apoptotic index [(number of condensed nuclei in MAP-2 or NeuN-positive cells)/(number of total MAP-2 or NeuN-positive cells)×100%], as reported by Bonfoco et al. (Proc. Natl. Acad. Sci. USA 92:7162-7166, 1995).
Cerebrocortical cultures were prepared from embryonic day-17 Sprague-Dawley rats and used at day 14-21 in vitro (DIV14-21), as described (Bonfoco et al., Proc. Natl. Acad. Sci. USA 92:7162-7166, 1995). To induce predominantly neuronal apoptosis (rather than necrosis), we exposed cortical cultures to 50 mM NMDA plus 5 mM glycine/1.8 mM CaCl2 in nominally Mg^2+-free Earle's balanced salt solution for 15 min (Bonfoco et al., Proc. Natl. Acad. Sci. USA 92:7162-7166, 1995). After exposure to NMDA, the cultures were returned to normal medium containing vehicle or NEPP11 and incubated for 20 hr before analyzing cell survival. To assess the ability of NEPP compounds to block NMDA-induced neuronal apoptosis, we identified apoptotic neurons by double immunofluorescence with anti-NeuN and anti-MAP-2 to specifically label neurons and with Hoechst staining for nuclear morphology to detect apoptosis. The percentage of neurons and non-neuronal cells in our cultures was 33.6±4.9% and 66.4±4.4% (n=4), respectively.
In addition, we used mature cortical cultures (E17, DIV21) to assess excitotoxicity because functional NMDA receptors are expressed on these neurons.

For `CCN1C(=O)C=CC1=O` [NEM, N-ethylmaleimide, reference compound], the “outcome for neurons in cortical cultures” value (GSH) was “neuronal death after 24 h”.

With `CC(C)c1cc2c(c(O)c1O)C1(C(=O)NCCCCCNC(=O)CCCCC3SCC4NC(=O)NC43)CCCC(C)(C)C1CC2` (stereo not shown) [CAB] the “adduct formation with BSA” value [1] was “a single band (68 kDa) corresponding to the complex of BSA and CAB was detected”, the “site of accumulation at low concentration” value ([2]; CAB 3 μM) was “non-neuronal cells were strongly positive” and the “site of accumulation at higher concentration” value ([2]; CAB 10 μM) was “neurons were also labeled”. For the same compound, the “binding to Keap1-WT (73-kDa protein)” value (Keap1 [3]) was “observed in cells treated with CAB”, the “binding to IVR Keap1” value (Keap1 [4]) was “very little binding” and the “binding to ΔBTB Keap1” value (Keap1 [4]) was “no binding at all”. The “binding to ΔDGR Keap1” value (Keap1 [4]) was “strong binding”, the “ARE activation relative to CA” value (ARE; 20 μM CAB versus 10 μM CA) was “to a much lesser extent” and the “activation of the ARE” value (ARE; PC12h cells, CAB) was “significantly activated the ARE”. For the same compound, the “level required to protect PC12h cells, relative to CA” value (PC12h cells) was “a greater level of CAB than CA was required”.

`C[S+]([O-])CCCCN=C=S` (stereo not shown) [sulforaphane, reference compound] was tested, and the “protection of PC12h cells against oxidative glutamate toxicity” value (PC12h cells) was “did not protect”.

`C=CC1=C(C)c2cc3[n-]c(cc4nc(cc5[n-]c(cc1n2)c(C)c5C=C)C(C)=C4CCC(=O)O)c(CCC(=O)O)c3C.[Zn+2]` [ZnPP, zinc protoporphyrin, reference compound] was tested, and the “effect of HO-1 antagonist on neuroprotection by NEPP11” value (cerebrocortical neurons) was “abrogated the neuroprotective effect of NEPP11”.
